Test results as given in patent publication US11866405B2, “Substituted indazoles as IRAK4 inhibitors” (AstraZeneca AB, priority 2020, dated 2024).
Where two headings read alike, the source gives them in different places.

Tests used:
[1] = target: IRAK4 auto-phosphorylation (Homo sapiens (Human), UniProt Q9NWZ3); assay: IRAK4 phosphorylation cell assay in IL-1β-stimulated Karpas-299 cells; type: cell-based; details: IL-1β 22.7 ng/mL, pIRAK4 (Thr345/Ser346), geometric mean of at least 2 experiments
IRAK4 auto-phosphorylation, sequence (Q9NWZ3 whole entry): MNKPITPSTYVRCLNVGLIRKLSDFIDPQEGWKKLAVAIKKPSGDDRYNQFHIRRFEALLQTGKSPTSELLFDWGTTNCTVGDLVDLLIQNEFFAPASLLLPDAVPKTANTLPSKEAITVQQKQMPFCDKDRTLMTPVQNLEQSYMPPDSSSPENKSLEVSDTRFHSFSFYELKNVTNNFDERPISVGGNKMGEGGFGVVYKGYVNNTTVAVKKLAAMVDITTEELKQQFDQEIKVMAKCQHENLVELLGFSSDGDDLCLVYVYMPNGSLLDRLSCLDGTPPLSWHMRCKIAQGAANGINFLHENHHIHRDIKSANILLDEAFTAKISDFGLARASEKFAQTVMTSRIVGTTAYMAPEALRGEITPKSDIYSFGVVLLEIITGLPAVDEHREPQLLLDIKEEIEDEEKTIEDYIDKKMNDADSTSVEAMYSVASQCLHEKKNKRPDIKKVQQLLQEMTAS
Method in brief: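 Karpas-299 cells were preincubated 1 h at 37 °C with compound (10-point half-log series, top 30 μM), then stimulated 10 min with 22.7 ng/mL IL-1β. Cells were fixed and stained for pIRAK4 (Thr345/Ser346), and per-cell fluorescence was quantified by high-content imaging. IC50 values are geometric means of at least 2 experiments.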

[2] = target: human recombinant IRAK4 protein (Homo sapiens (Human), UniProt Q9NWZ3); assay: IRAK4 enzyme assay (mass spectrometry readout); type: biochemical; details: 3 mM ATP, 0.2 nM enzyme; geometric mean of at least n=2, * single experiment
human recombinant IRAK4 protein, sequence (Q9NWZ3 whole entry): as above
Method in brief: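 0.2 nM IRAK4 preincubated 15 min at room temperature with compound (10-point half-log series, top 1 μM or 10 μM) in pH 7.4 Tris buffer with 3 mM ATP; 10 μM peptide substrate added, 2 h at room temperature, formic acid stop. Phospho/unphospho peptide ratio by LC-MS/MS; potency from curve fit, geometric mean of n≥2 or single run.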

[3] = system: IL-1β stimulated IL-8 release in hTHP1 cells; assay: IL-1β-induced IL-8 release in human THP-1 monocyte cell line; type: cell-based; details: THP-1 cells, IL-1β 1.8 ng/mL
Experimental: Effect of IRAK4 Inhibitors on IL-1β-Induced Cytokine Release in Human THP-1 Monocyte Cell Line
THP-1 cells were cultured in RPMI 1640 (Gibco 72400-021) containing 10% FBS (Gibco 10270-106), 1 mM Na-pyruvate (Gibco 11360-070) and 100 U/mL Penicillin-Streptomycin (Gibco 15140-122). Cells were plated at 5×10^4 cells per well in 384 well Echo certified plates (Labcyte PPT-0200) to which compounds had been added at various concentrations (10 point half log dose response with a final top concentration of 10 μM) using an Echo 655 (Labcyte Inc). The plate was incubated for 1 h at 37° C., then recombinant […] (R&D Systems 201-LB-025/CF) was added to a final concentration of 1.8 ng/mL. The plates were incubated at 37° C. for 18h. The plates were centrifuged at 250×g for four minutes, then 1.6 μL of the cell supernatant was transferred to a white low volume 384 well plate (Greiner #784075) using acoustic dispensing on an Echo 655. Next, 200 nL of acceptor bead (5 mg/mL) and biotinylated anti-IL-8 antibody (500 nM) was added using acoustic dispensing (beads and antibody were from a PerkinElmer 18 Alpha LISA detection kit, AL224C). The plate was sealed, briefly centrifuged, then incubated at room temperature for 1 h. Afterwards, 200 nL of donor bead solution (5 mg/mL) was added, the plate sealed and briefly centrifuged, then incubated for 1 h before being read on an Envision plate reader to allow determination the concentration of IRAK4 inhibitor required to effect a 50% reduction in the amount of IL-8 released following IL-1β stimulation in THP1 cells (Table 2). The quantified data were analysed in Genedata Screener 15 (Genedata AG). Data presented are the geometric mean of at least n=2, or as denoted by an * are obtained from a single experiment.

[4] = 18 h, geometric mean of at least n=2, * n = 1, read-out: hTHP1, IL1β stim, IL8 release red. IC50
[5] = Homo sapiens, THP-1, 18 h, geometric mean of at least n=2, * n = 1, read-out: hTHP1, IL1β stim, IL8 release red. IC50

IC50 [1] | IC50 [2] | IC50 [3, 4] | IC50 [3, 5] | Compound
88 nM | 2.3 nM |  | 49 nM | COc1cc2nn([C@H]3CC[C@H](O)C[C@@H]3C)cc2cc1C(=O)Nc1cnc2cccnn12 [Example 91, 2-((1S,2S,4S)-4-hydroxy-2-methylcyclohexyl)-N-(imidazo[1,2-b]pyridazin-3-yl)-6-methoxy-2H-indazole-5-carboxamide]
44 nM | 1.1 nM | 52 nM |  | COc1cc2nn([C@@H]3CCC4(C[C@@H]3C)CN(C(C)=O)C4)cc2cc1C(=O)Nc1cnc2cccnn12 (single isomer, unassigned) [Example 65]
60 nM | 0.8 nM |  | 35 nM | O=C(Nc1cnn2cccnc12)c1cc2cn([C@H]3CC[C@H](O)CC3)nc2cc1OC1CC1 [Example 57, 6-Cyclopropoxy-2-((1r,4r)-4-hydroxycyclohexyl)-N-(pyrazolo[1,5-a]pyrimidin-3-yl)-2H-indazole-5-carboxamide]
36 nM | 1.9 nM |  | 31 nM | COc1cc2nn([C@H]3CC[C@]4(CC3)CC(=O)N(C)C4)cc2cc1C(=O)Nc1cnn2cccnc12 [Example 86, 6-methoxy-2-((5r,8r)-2-methyl-3-oxo-2-azaspiro[4.5]decan-8-yl)-N-(pyrazolo[1,5-a]pyrimidin-3-yl)-2H-indazole-5-carboxamide]
22 nM | 0.5 nM |  | 15 nM | COc1cc2nn([C@H]3CC[C@]4(CC3)CC(=O)N(C)C4)cc2cc1C(=O)Nc1cnc2cccnn12 [Example 69, N-(Imidazo[1,2-b]pyridazin-3-yl)-6-methoxy-2-((5r,8r)-2-methyl-3-oxo-2-azaspiro[4.5]decan-8-yl)-2H-indazole-5-carboxamide]
144 nM | 4.3 nM | 91 nM |  | COc1cc2nn([C@@H]3CCC4(C[C@H]3C)CN(C(C)=O)C4)cc2cc1C(=O)Nc1cnc2cccnn12 (single isomer, unassigned) [Example 67]
30 nM | 1.6 nM |  | 28 nM | COc1cc2nn([C@@H]3CC[C@](C)(O)C[C@H]3C)cc2cc1C(=O)Nc1cnc2cccnn12 [Example 92, 2-((1R,2R,4S)-4-hydroxy-2,4-dimethylcyclohexyl)-N-(imidazo[1,2-b]pyridazin-3-yl)-6-methoxy-2H-indazole-5-carboxamide]
28 nM | 1.5 nM |  | 70 nM | COc1cc2nn([C@H]3CC[C@H](O)[C@@H](C)C3)cc2cc1C(=O)Nc1cnc2cccnn12 (single isomer, unassigned) [Example 80]
8 nM | 0.4 nM |  | 30 nM | COc1cc2nn([C@@H]3CC[C@@](C)(O)C[C@H]3C)cc2cc1C(=O)Nc1cnc2cccnn12 [Example 93, 2-((1R,2R,4R)-4-hydroxy-2,4-dimethylcyclohexyl)-N-(imidazo[1,2-b]pyridazin-3-yl)-6-methoxy-2H-indazole-5-carboxamide]
199 nM | 13.9 nM |  |  | COc1cc2nn(C3CCC4(CC3)COCC(=O)N4C)cc2cc1C(=O)Nc1cnn2cccnc12 (single isomer, unassigned) [Example 118, 6-Methoxy-2-(1-methyl-2-oxo-4-oxa-1-azaspiro[5.5]undecan-9-yl)-N-(pyrazolo[1,5-a]pyrimidin-3-yl)-2H-indazole-5-carboxamide]

Continued, compound first:

Compound | IC50 [1] | IC50 [2] | IC50 [3, 4] | IC50 [3, 5]
O=C(Nc1cnn2cccnc12)c1cc2cn([C@H]3CCC[C@H](O)C3)nc2cc1OC1CC1 (single isomer, unassigned) [Example 20] | 35 nM | 0.7 nM | 31 nM | 
COc1cc2nn([C@H]3CCC[C@@H](O)C3)cc2cc1C(=O)Nc1cnc2cccnn12 (single isomer, unassigned) [Example 10] | 19 nM | 1.2 nM |  | 14 nM
COc1cc2nn([C@H]3CCC[C@@H](O)C3)cc2cc1C(=O)Nc1cnn2cccnc12 (single isomer, unassigned) [Example 13] | 816 nM | 6.5 nM |  | 59 nM
CC(=O)N1CC2(CC[C@@H](n3cc4cc(C(=O)Nc5cnn6cccnc56)c(OC5CC5)cc4n3)[C@@H](C)C2)C1 (single isomer, unassigned) [Example 30] | 46 nM | < 0.3 nM | 14 nM | 
O=C(Nc1cnn2cccnc12)c1cc2cn([C@H]3CCC[C@@H](O)C3)nc2cc1OC1CC1 [Example 18] | 19 nM | < 0.6 nM | 21 nM | 
2-((1r,4r)-4-(cyclopropanecarboxamido)cyclohexyl)-6-methoxy-N-(pyrazolo[1,5-a]pyrimidin-3-yl)-2H-indazole-5-carboxamide [Example 26] | 26 nM | 1.6 nM | 25 nM | 
COc1cc2nn([C@H]3CCC[C@@H](O)C3)cc2cc1C(=O)Nc1cnn2cccnc12 (single isomer, unassigned) [Example 14] | 171 nM | 17.7 nM | 38 nM | 
6-Cyclopropoxy-2-((1r,4r)-4-(N-methylacetamido)cyclohexyl)-N-(pyrazolo[1,5-a]pyrimidin-3-yl)-2H-indazole-5-carboxamide [Example 33] | 45 nM | 1 nM | 30 nM | 
O=C(Nc1cnn2cccnc12)c1cc2cn([C@H]3CCC[C@H](O)C3)nc2cc1OC1CC1 (single isomer, unassigned) [Example 19] | 47 nM | 1 nM |  | 35 nM
COc1cc2nn([C@@H]3CCC(N(C)C(C)=O)C[C@H]3C)cc2cc1C(=O)Nc1cnc2cccnn12 (single isomer, unassigned) [Example 37, N-(imidazo[1,2-b]pyridazin-3-yl)-6-methoxy-2-(1R,2R,4R*)-2-methyl-4-(N-methylacetamido)cyclohexyl)-2H-indazole-5-carboxamide] | 6 nM | 0.3 nM |  | 3 nM
COc1cc2nn([C@H]3CC[C@H](O)CC3)cc2cc1C(=O)Nc1cnc2cccnn12 [Example 8, 2-((1r,4r)-4-Hydroxycyclohexyl)-N-(imidazo[1,2-b]pyridazin-3-yl)-6-methoxy-2H-indazole-5-carboxamide] | 58 nM | 2.8 nM | 50 nM | 
COc1cc2nn([C@H]3CC[C@H](N(C)C(C)=O)CC3)cc2cc1C(=O)Nc1cnn2cnccc12 [Example 25, 6-Methoxy-2-((1r,4r)-4-(N-methylacetamido)cyclohexyl)-N-(pyrazolo[1,5-c]pyrimidin-3-yl)-2H-indazole-5-carboxamide] | 19 nM | 1.4 nM | 23 nM | 
COc1cc2nn([C@H]3CC[C@H](N(C)C(C)=O)CC3)cc2cc1C(=O)Nc1cnc2cccnn12 [Example 23, N-(Imidazo[1,2-b]pyridazin-3-yl)-6-methoxy-2-((1r,4r)-4-(N-methylacetamido)cyclohexyl)-2H-indazole-5-carboxamide] | 5 nM | 0.2 nM |  | 7 nM
COc1cc2nn([C@H]3CCC(N(C)C(C)=O)C[C@@H]3C)cc2cc1C(=O)Nc1cnc2cccnn12 (single isomer, unassigned) [Example 34, N-(imidazo[1,2-b]pyridazin-3-yl)-6-methoxy-2-((1S,2S,4R*)-2-methyl-4-(N-methylacetamido)cyclohexyl)-2H-indazole-5-carboxamide] | 31 nM | 2 nM |  | 22 nM
COc1cc2nn(C3CCC4(CC3)CC(C)(O)C4)cc2cc1C(=O)Nc1cnc2cccnn12 (single isomer, unassigned) [Example 5, 2-(2-Hydroxy-2-methylspiro[3.5]nonan-7-yl)-N-(imidazo[1,2-b]pyridazin-3-yl)-6-methoxy-2H-indazole-5-carboxamide] | 31 nM | 0.5 nM |  | 16 nM
